Measured values as given in patent EP0705258B1, “AZOLYL-CYCLIC AMINE DERIVATIVES WITH IMMUNOMODULATORY ACTIVITY” (Knoll AG, priority 1993, dated 1995).
Where a name gives a salt, the structure may show the parent alone.

Tests used:
[1] = system: tumour necrosis factor-α (TNF-α); assay: Mouse Tumour Necrosis Factor Test (Test B), mouse endotoxin shock model, serum TNF-α by ELISA; format: in vivo, BALB/c mice; settings: minimum effective oral dose giving significant reduction in serum TNF-α of ≥35%, dosed 2 h before LPS i.p., ≤ = active at dose given but not tested at lower doses; for minimal effective dose: Mus musculus, read-out: MTNF:MED
Source text: Preferred compounds of the present invention are active in an in-vivo test which determines the ability of the compounds to inhibit the release of tumour necrosis factor-α (TNF-α) in a mouse endotoxin shock model (Test B). This model is similar to that described by Zuckerman and Bendele (1989), Infection and Immunity 57 (10): p3009-3013.
Each compound of formula I was combined with a carrier of a solution of 1.5% v/v sorbitan esters under the trade name Tween 80 and 0.25% v/v cellosize in sterile water (100 µl) and was administered orally to a group of four BALB/c mice. The concentration of compound was such as to provide dosages selected from 100, 30, 10, 3, 1, 0.1 and 0.03 mg/kg. Two hours after such oral administration, lipopolysaccharide (LPS) (E. coli 0127:B8) (100 µg) in sterile water (0.2 ml) was administered intraperitoneally to the test mice.
A control group of eight BALB/c mice was treated in a similar manner as the test group except that no test compound was included with the carrier.
One hour after LPS administration the mice were killed and blood was collected by cardiac puncture. The blood was incubated at 20°C for 2 hours and the serum was separated from the clotted blood following centrifugation. Serum tumour necrosis factor-α (TNF-α) levels were assayed by an enzyme-linked immunosorbent assay (ELISA) and the concentration of TNF-α in each of the drug-treated groups was compared with the control group by one-way analysis of variance followed by a multiple t-test.
The ELISA was carried out by coating a 96-well vinyl assay plate (Costar) overnight at 4°C with 50 µl per well of 2 µg/ml hamster anti-mouse TNF monoclonal antibody in 0.1M sodium hydrogen carbonate buffer at pH 8.2. After washing the plate with phosphate buffered saline (PBS) containing 0.05% v/v sorbitan esters under the trade name Tween 20 (wash buffer), a blocking/dilution buffer (10% sheep serum in PBS containing 0.1% v/v sorbitan esters under the trade name Tween 20 (200 µl)) was aliquoted to each well and incubated at 37°C for 0.5 hours. After aspirating the blocking buffer, the serum samples and pure TNF (as a standard) diluted in blocking/dilution buffer, were added to the wells and incubated at 37°C for 2 hours. After washing with the wash buffer, a polyclonal rabbit anti-mouse TNF-α antibody in blocking/dilution buffer (100 µl of a 1 in 10,000 dilution) was added and incubated for a further 1.5 hours at 37°C. After further washes, anti-rabbit IgG peroxidase conjugate (100 µl of a 1 in 4000 dilution) was added and incubated at 37°C for 0.5 hours. After further washing, the substrate solution (100 µl per well of 0.1 mg/ml 3,3', 5,5'-tetramethylbenzidine dihydrochloride in 0.1M phosphate citrate buffer, pH 5.0, to which 2 µl of 30% hydrogen peroxide per 10 ml was added just before use) was added and the colour allowed to develop. The reaction was stopped by the addition of 1M sulphuric acid (25 µl) and the optical density read in a multichannel spectrophotometer at 450 nm. The mean TNF-α concentration was determined by comparison with the standard curve and the mean TNF-α concentration for each group compared with that produced by the control group. Drug treatments which cause a statistically significant reduction in TNF-α concentration of ≥35% at a single dose at 100 mg/kg or less were considered active.

[2] = system: lymphocyte proliferation (BALB/c responder and mitomycin C treated C57BL/6 stimulator spleen cells); assay: Mixed Lymphocyte Reaction (Test A), one-way MLR, tritiated thymidine incorporation; format: cell-based, mice; settings: concentration causing 50% inhibition of lymphocyte proliferation, by linear interpolation, ≤ = active at this concentration but not tested at lower doses
Method: A mixed lymphocyte reaction (MLR) occurs when lymphocytes from two genetically dissimilar individuals, or inbred strains of mice are cultured together. An MLR results in the activation and proliferation of lymphocytes, which is measured by the incorporation of radiolabelled thymidine into the cellular DNA synthesised during cell division. A 'one-way' MLR is used to determine the immunosuppressive activity of test compounds in vitro. In this reaction one population of spleen cells serves as the stimulator cells and is treated with mitomycin C to prevent cell division. Spleen cells from a second allogeneic population (responder cells) are untreated and when mixed with the stimulator cells are able to undergo division which is measured. The degree of proliferation is measured in the presence and absence of test compound to assess the immunosuppressive activity of the compound.
The techniques for carrying out lymphocyte proliferation assays including MLRs are well known, eg Bradley, pages 156-166, in Mishell and Shiigi, Eds. Selected Methods in Cellular Immunology (Freeman, San Francisco, 1980); and Battisto et al, methods in Enzymology 1987; 150: 83-91. Various slight modifications of these techniques are in use and that used herein is described in Gibb, Webber and Bowen, J Immunological Methods 1985; 81: 107-113.
Cell suspensions obtained from the spleens of female BALB/c and C57BL/6 strain mice of between 6 and 9 weeks of age were used as sources of responder and stimulator cells respectively. The mice were killed using a rising concentration of CO2 and the spleens removed aseptically and teased using a scalpel and forceps to produce a single cell suspension in Hanks balanced salt solution (HBSS). The suspensions were filtered through cell strainers (Falcon), sedimented by centrifugation and resuspended in Tris-buffered ammonium chloride pH 7.2 (medium D) to lyse the erythrocytes. The cells were sedimented again and washed twice in HBSS before resuspending in complete RPMI 1640 tissue culture medium (medium E). The C57BL/6 cells were resuspended to 9 mls per spleen and a solution of mitomycin C at 400 µg/ml in medium E added to give a final concentration of 40 µg/ml. After incubation of the C57BL/6 cells at 37°C for 30 minutes in an atmosphere of 5% CO2 and 95% air, the cells were sedimented and washed 3 times in medium E. Both cell suspensions were diluted in medium E to 5 x 10^6 cells/ml. 100µl of each of the responder and stimulator cell suspensions were aliquoted into the wells of 96 well flat bottom microtitre plates containing 50 µl of test compound at an appropriate dilution (initially 50 µM diluted in medium E from a stock solution at 100 mM in dimethyl sulphoxide) giving a final test compound concentration of 10 µM (final dilution). Compounds active at this concentration were tested at further final dilution of 1 µM, 0.1 µM and 0.01 µM and 0.001 µM to determine the concentration of test compound which causes 50% inhibition of the immune response (IC50). After four days of culture at 37°C in a humidified atmosphere of 5% CO2 and 95% air, 1 µCi of tritiated thymidine in 20 µl of medium E was added to each well and the plates incubated for a further 24 hours. Cells were then harvested onto Inotech G7 glass fibre filter mats using an Inotech cell harvester. The filters were transferred to vials to which 2 ml of Packard Emulsifier-Safe scintillation fluid was added and the radioactivity from the incorporated thymidine was counted in a Packard liquid scintillation counter. The counts per minute (CPM) reflect the degree of lymphocyte proliferation. The data were analysed to determine the percentage inhibition of lymphocyte proliferation by the test compound. […]

Compound | IC50 ([2]; Mus musculus) [µM] | minimal effective dose [1] [mg/kg] | other results
4-[2-(4-Methylimidazol-1-yl)ethyl]-1-(3-phenylpropyl)piperidine and 4-[2-(5-Methylimidazol-1-yl)ethyl]-1-(3-phenylpropyl)piperidine [Example 118] | – | – | MTNF:MED [1]: ≤100 mg/kg; IC50 [2]: 1.4 µM
O=C(CCc1ccccc1)N1CCC(CCn2ccnc2)CC1 [Example 50, 4-[2-(imidazol-1-yl)ethyl]-1-(3-phenylpropionyl)piperidine] | 0.2 | – | –
Cl.Cl.O=C(CCc1ccccc1)N1CCCCC1CCn1ccnc1 (stereo not shown) [Example 52, 2-[2-(Imidazol-1-yl)ethyl]-1-(3-phenylpropionyl)piperidine dihydrochloride] | – | 100 | –
O=C(CCc1ccccc1)N1CCCC(Cn2ccnc2)C1 (stereo not shown) [Example 53, 3-Imidazol-1-ylmethyl-1-(3-phenylpropionyl)-piperidine] | – | 30 | –
O=C(CCc1ccccc1)N1CCC(CCCn2ccnc2)CC1 [Example 56, 4-[3-(Imidazol-1-yl)propyl]-1-(3-phenylpropionyl)piperidine] | ≤ 1 | – | –
Cc1nccn1CCC1CCN(C(=O)CCc2ccc(Cl)cc2)CC1 [Example 57, 1-[3-(4-Chlorophenyl)propionyl]-4-[2-(2-methylimidazol-1-yl)ethyl]piperidine] | ≤ 1 | 100 | –
CC(C)c1nccn1CCC1CCN(C(=O)CCc2ccccc2)CC1 [Example 58, 4-[2-(2-Isopropylimidazol-1-yl)ethyl]-1-(3-phenylpropionyl)piperidine] | 0.004 | – | –
CCCCCCCCCCCc1nccn1CCC1CCN(C(=O)CCc2ccccc2)CC1 [Example 62, 1-(3-Phenylpropionyl)-4-[2-(2-undecylimidazol-1-yl)ethyl]piperidine] | 1.9 | – | –
Cc1nc2ccccc2n1CCC1CCN(C(=O)CCc2ccccc2)CC1 [Example 65, 2-Methyl-1-{2-[1-(3-phenylpropionyl)-piperidin-4-yl]ethyl}benzimidazole] | 3.8 | – | –
CCc1nccn1CC1CCN(C(=O)CCc2ccccc2)CC1 [Example 66, 4-(2-Ethylimidazol-1-ylmethyl)-1-(3-phenylpropionyl)piperidine] | ≤ 1 | – | –
Cc1nccn1CCC1CCN(C(=O)CCc2ccccc2)CC1 [Example 72, 4-[2-(2-Methylimidazol-1-yl)ethyl]-1-(3-phenylpropionyl)piperidine] | 0.03 | – | –
Cc1nccn1CCC1CCN(C(=O)CCCc2ccccc2)CC1 [Example 82, 4-[2-(2-Methylimidazol-1-yl)ethyl]-1-(4-phenylbutyroyl)piperidine] | ≤ 1 | – | –
O=C(CCCc1ccccc1)N1CCC(CCn2ccnc2)CC1 [Example 85, 4-[2-(Imidazol-1-yl)ethyl]-1-(4-phenylbutyroyl)piperidine] | 0.6 | – | –
c1ccc(SCCN2CCC(CCn3ccnc3)CC2)cc1 [Example 86, 4-[2-(imidazol-1-yl)ethyl]-1-(2-phenylthioethyl)piperidine] | 2.6 | ≤ 10 | –
O=C(CCN1CCC(CCn2ccnc2)CC1)c1ccccc1 [Example 89, 4-[2-(Imidazol-1-yl)ethyl]-1-(3-oxo-3-phenylpropyl)piperidine] | – | ≤ 30 | –
O=C(c1ccccc1Cl)c1nccn1CCC1CCN(CCCc2ccccc2)CC1 [Example 92, 4-{2-[2-(2-Chlorobenzoyl)imidazol-1-yl]-ethyl}-1-(3-phenylpropyl)piperidine] | – | ≤ 10 | –
Cc1ccc(CCC(=O)N2CCC(CCn3ccnc3C)CC2)cc1 [Example 94, 4-[2-(2-methylimidazol-1-yl)ethyl]-1[3-(4-methylphenyl)propionyl]piperidine] | ≤ 1 | – | –
c1ccc(CCCN2CCN(CCn3ccnc3)CC2)cc1 [Example 95, 1-[2-imidazol-1-yl)ethyl]-4-(3-phenylpropyl)piperazine trihydrochloride] | 2.8 | ≤ 3 | –
c1ccc(CCCC2CCN(CCn3cncn3)CC2)cc1 [Example 97, 1-[2-(1H-1,2,4-triazol-1-yl)ethyl]-4-(3-phenylpropyl)-piperidine dihydrochloride] | 2.3 | – | –
c1ccc(CCCN2CCC(CCCn3ccnc3)CC2)cc1 [Example 104, 4-[3-(Imidazol-1-yl)propyl]-1-(3-phenylpropyl)piperidine] | ≤ 1 | ≤ 100 | –
Cc1nccn1CCC1CCN(CCCc2ccc(Cl)cc2)CC1 [Example 105, 1-[3-(4-Chlorophenyl)propyl]-4-[2-(2-methylimidazol-1-yl)ethyl]piperidine] | ≤ 1 | – | –
c1ccc(CCCN2CCC(CCn3cnc(-c4ccccc4)c3-c3ccccc3)CC2)cc1 [Example 108, 4-[2-(4,5-Diphenylimidazol-1-yl)ethyl]-1-(3-phenylpropyl)piperidine] | 1.2 | – | –
c1ccc(CCCN2CCC(CCn3cncn3)CC2)cc1 [Example 111, 1-(3-Phenylpropyl)-4-[2-(1H-1,2,4-triazol-1-yl)ethyl]piperidine] | 7.3 | ≤ 10 | –
c1ccc(CCCN2CCC(CCn3ccnn3)CC2)cc1 [Example 119, 1-(3-Phenylpropyl)-4-[2-(1H-1,2,3-triazol-1-yl)ethyl]piperidine] | 2.4 | – | –
COc1ccc(CCCN2CCC(CCn3ccnc3)CC2)cc1 [Example 124, 4-[2-(Imidazol-1-yl)ethyl]-1-[3-(4-methoxyphenyl)propyl]piperidine] | – | ≤ 30 | –
